According to patent publication US7141592B2, “Substituted oxadiazolidinediones” (Wyeth, priority 2003, dated 2006):

Target: T1, recombinant human plasminogen activator inhibitor-1 (PAI-1) (Homo sapiens, UniProt P05121)
T1 construct: purchased Molecular Innovations, Royal Oak, Mich
Test: Primary screen for the PAI-1 inhibition (chromogenic tPA activity, Spectrozyme-tPA)
Type: biochemical
Details: compound at 100 μM
Experimental: Test compounds are dissolved in DMSO at a final concentration of 10 mM, then diluted 100× in physiologic buffer. The inhibitory assay is initiated by the addition of the substituted oxadiazolidinedione (1–100 μM final concentration, maximun DMSO concentration of 0.2%) in a pH 6.6 buffer containing 140 nM recombinant human plasminogen activator inhibitor-1 (PAI-1; Molecular Innovations, Royal Oak, Mich.). Following a 1 hour incubation at room temperature, 70 nM of recombinant human tissue plasminogen activator (tPA) is added, and the combination of the substituted oxadiazolidinedione, PAI-1 and tPA is incubated for an additional 30 minutes. Following the second incubation, Spectrozyme-tPA (American Diagnostica, Greenwich, Conn.), a chromogenic substrate for tPA, is added and absorbance read at 405 nm at 0 and 60 minutes. Relative PAI-1 inhibition is equal to the residual tPA activity in the presence of the test compound and PAI-1. Control treatments include the complete inhibition of tPA by PAI-1 at the molar ratio employed (2:1), and the absence of any effect of the substituted oxadiazolidinedione on tPA alone.

T1 sequence (P05121 24-402): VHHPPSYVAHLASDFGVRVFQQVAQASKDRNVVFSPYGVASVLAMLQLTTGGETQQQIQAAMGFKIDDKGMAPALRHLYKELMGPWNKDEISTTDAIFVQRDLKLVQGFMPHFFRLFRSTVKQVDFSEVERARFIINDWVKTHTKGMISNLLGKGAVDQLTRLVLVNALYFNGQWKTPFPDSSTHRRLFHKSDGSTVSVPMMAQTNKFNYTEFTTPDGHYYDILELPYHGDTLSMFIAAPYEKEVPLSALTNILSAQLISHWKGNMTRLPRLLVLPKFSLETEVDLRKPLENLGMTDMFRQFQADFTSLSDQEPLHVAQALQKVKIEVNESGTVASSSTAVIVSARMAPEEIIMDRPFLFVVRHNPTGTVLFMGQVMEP

Row | Compound | % Inhibition @ 100 μM | inhibition at 100 µM
1 | 2-({4′-[(3-bromobenzyl)oxy]-1,1′-biphenyl-3-yl}methyl)-1,2,4-oxadiazolidine-3,5-dione [Compound 52] | 80% | –
2 | 2-({4′-[(4-bromobenzyl)oxy]-1,1′-biphenyl-3-yl}methyl)-1,2,4-oxadiazolidine-3,5-dione [Compound 50] | 41% | –
3 | 2-({4′-[(4-tert-butylbenzyl)oxy]-1,1′-biphenyl-3-yl}methyl)-1,2,4-oxadiazolidine-3,5-dione [Compound 48] | 23% | –
4 | 2-[(3′-{[3-(trifluoromethyl)benzyl]oxy}-1,1′-biphenyl-3-yl)methyl]-1,2,4-oxadiazolidine-3,5-dione [Compound 41] | 81% | –
5 | 2-[(3′-{[4-(trifluoromethyl)benzyl]oxy}-1,1′-biphenyl-3-yl)methyl]-1,2,4-oxadiazolidine-3,5-dione [Compound 37] | 3% | –
6 | 2-[(4′-{[3,5-bis(trifluoromethyl)benzyl]oxy}-1,1′-biphenyl-3-yl)methyl]-1,2,4-oxadiazolidine-3,5-dione [Compound 51] | 65% | –
7 | 2-[(4′-{[4-(trifluoromethyl)benzyl]oxy}-1,1′-biphenyl-3-yl)methyl]-1,2,4-oxadiazolidine-3,5-dione [Compound 49] | 28% | –
8 | 2-{3-[3-(4-isobutylphenoxy)prop-1-ynyl]benzyl}-1,2,4-oxadiazolidine-3,5-dione [Compound 70] | 76% | –
9 | 2-{4-[3-(4-isobutylphenoxy)prop-1-ynyl]benzyl}-1,2,4-oxadiazolidine-3,5-dione [Compound 64] | 65% | –
10 | 2-{[4-(phenylethynyl)thien-2-yl]methyl}-1,2,4-oxadiazolidine-3,5-dione [Compound 58] | 45% | –
11 | 2-{[5-(phenylethynyl)thien-2-yl]methyl}-1,2,4-oxadiazolidine-3,5-dione [Compound 59] | 60% | –
12 | C=CCn1cc(Cn2oc(=O)[nH]c2=O)c2cc(OCc3ccc(C(C)(C)C)cc3)ccc21 [Compound 2, 2-({1-allyl-5-[(4-tert-butylbenzyl)oxy]-1H-indol-3-yl}methyl)-1,2,4-oxadiazolidine-3,5-dione] | – | 100%
13 | CCn1cc(Cn2oc(=O)[nH]c2=O)c2cc(OCc3ccc(C(C)(C)C)cc3)ccc21 [Compound 3, 2-({5-[(4-tert-butylbenzyl)oxy]-1-ethyl-1H-indol-3-yl}methyl)-1,2,4-oxadiazolidine-3,5-dione] | – | 9%
14 | C=CCn1cc(Cn2oc(=O)[nH]c2=O)c2cc(OCc3ccc(C(F)(F)F)cc3)ccc21 [Compound 4, 2-[(1-allyl-5-{[4-(trifluoromethyl)benzyl]oxy}-1H-indol-3-yl)methyl]-1,2,4-oxadiazolidine-3,5-dione] | – | 96%
15 | C=CCn1cc(Cn2oc(=O)[nH]c2=O)c2cc(OCc3cc(C(F)(F)F)cc(C(F)(F)F)c3)ccc21 [Compound 5, 2-[(1-allyl-5-{[3,5-bis(trifluoromethyl)benzyl]oxy}-1H-indol-3-yl)methyl]-1,2,4-oxadiazolidine-3,5-dione] | – | 100%
16 | CCn1cc(Cn2oc(=O)[nH]c2=O)c2cc(OCc3cc(C(F)(F)F)cc(C(F)(F)F)c3)ccc21 [Compound 6, 2-[(5-{[3,5-bis(trifluoromethyl)benzyl]oxy}-1-ethyl-1H-indol-3-yl)methyl]-1,2,4-oxadiazolidine-3,5-dione] | – | 28%
17 | O=c1[nH]c(=O)n(Cc2cn(Cc3ccccc3)c3ccc(OCc4cc(C(F)(F)F)cc(C(F)(F)F)c4)cc23)o1 [Compound 7, 2-[(1-benzyl-5-{[3,5-bis(trifluoromethyl)benzyl]oxy}-1H-indol-3-yl)methyl]-1,2,4-oxadiazolidine-3,5-dione] | – | 94%
18 | O=c1[nH]c(=O)n(Cc2cn(Cc3ccccc3)c3ccc(OCc4cccc(Br)c4)cc23)o1 [Compound 8, 2-({1-benzyl-5-[(3-bromobenzyl)oxy]-1H-indol-3-yl}methyl)-1,2,4-oxadiazolidine-3,5-dione] | – | 94%
19 | Cc1cccc(COc2ccc3c(c2)c(Cn2oc(=O)[nH]c2=O)cn3Cc2ccccc2)c1 [Compound 11, 2-({1-benzyl-5-[(3-methylbenzyl)oxy]-1H-indol-3-yl}methyl)-1,2,4-oxadiazolidine-3,5-dione] | – | 59%

Row | Compound | % Inhibition @ 100 μM | inhibition at 100 µM
20 | C#CCn1cc(Cn2oc(=O)[nH]c2=O)c2cc(OCc3ccc(C(F)(F)F)cc3)ccc21 [Compound 12, 2-[(1-(2-propynyl)-5-{[4-(trifluoromethyl)benzyl]oxy}-1H-indol-3-yl)methyl]-1,2,4-oxadiazolidine-3,5-dione] | – | 100%
21 | O=c1[nH]c(=O)n(Cc2cn(Cc3ccccc3)c3ccc(OCc4ccc(C(F)(F)F)cc4)cc23)o1 [Compound 13, 2-[(1-benzyl-5-{[4-(trifluoromethyl)benzyl]oxy}-1H-indol-3-yl)methyl]-1,2,4-oxadiazolidine-3,5-dione] | – | 100%
22 | O=c1[nH]c(=O)n(Cc2cn(Cc3ccccc3)c3ccc(OCc4ccc(Br)cc4)cc23)o1 [Compound 14, 2-({1-benzyl-5-[(4-bromobenzyl)oxy]-1H-indol-3-yl}methyl)-1,2,4-oxadiazolidine-3,5-dione] | – | 100%
23 | C#CCn1cc(Cn2oc(=O)[nH]c2=O)c2cc(OCc3cc(C(F)(F)F)cc(C(F)(F)F)c3)ccc21 [Compound 15, 2-{[5-{[3,5-bis(trifluoromethyl)benzyl]oxy}-1-(2-propynyl)-1H-indol-3-yl]methyl}-1,2,4-oxadiazolidine-3,5-dione] | – | 91%
24 | C#CCn1cc(Cn2oc(=O)[nH]c2=O)c2cc(OCc3ccccc3Cl)ccc21 [Compound 17, 2-{[5-[(2-chlorobenzyl)oxy]-1-(2-propynyl)-1H-indol-3-yl]methyl}-1,2,4-oxadiazolidine-3,5-dione] | – | 49%
25 | C#CCn1cc(Cn2oc(=O)[nH]c2=O)c2cc(OCc3ccc(Cl)c(Cl)c3)ccc21 [Compound 18, 2-{[5-[(3,4-dichlorobenzyl)oxy]-1-(2-propynyl)-1H-indol-3-yl]methyl}-1,2,4-oxadiazolidine-3,5-dione] | – | 100%
26 | O=c1[nH]c(=O)n(Cc2cn(Cc3ccccc3)c3ccc(OCc4ccc(Cl)c(Cl)c4)cc23)o1 [Compound 19, 2-({1-benzyl-5-[(3,4-dichlorobenzyl)oxy]-1H-indol-3-yl}methyl)-1,2,4-oxadiazolidine-3,5-dione] | – | 79%
27 | C#CCn1cc(Cn2oc(=O)[nH]c2=O)c2cc(OCc3ccc4ccccc4c3)ccc21 [Compound 20, 2-{[5-(2-naphthylmethoxy)-1-(2-propynyl)-1H-indol-3-yl]methyl}-1,2,4-oxadiazolidine-3,5-dione] | – | 84%
28 | C=CCn1cc(Cn2oc(=O)[nH]c2=O)c2cc(OCc3ccc4ccccc4c3)ccc21 [Compound 21, 2-{[1-allyl-5-(2-naphthylmethoxy)-1H-indol-3-yl]methyl}-1,2,4-oxadiazolidine-3,5-dione] | – | 98%
29 | O=c1[nH]c(=O)n(Cc2cn(Cc3ccccc3)c3ccc(OCc4ccc5ccccc5c4)cc23)o1 [Compound 22, 2-{[1-benzyl-5-(2-naphthylmethoxy)-1H-indol-3-yl]methyl}-1,2,4-oxadiazolidine-3,5-dione] | – | 92%
30 | C#CCn1cc(Cn2oc(=O)[nH]c2=O)c2cc(OCc3ccc(C(C)(C)C)cc3)ccc21 [Compound 23, 2-{[5-[(4-tert-butylbenzyl)oxy]-1-(2-propynyl)-1H-indol-3-yl]methyl}-1,2,4-oxadiazolidine-3,5-dione] | – | 91%
31 | C#CCn1cc(Cn2oc(=O)[nH]c2=O)c2cc(OCc3ccc(Br)cc3)ccc21 [Compound 24, 2-{[5-[(4-bromobenzyl)oxy]-1-(2-propynyl)-1H-indol-3-yl]methyl}-1,2,4-oxadiazolidine-3,5-dione] | – | 68%
32 | C=CCn1cc(Cn2oc(=O)[nH]c2=O)c2cc(OCc3ccc(Br)cc3)ccc21 [Compound 25, 2-({1-allyl-5-[(4-bromobenzyl)oxy]-1H-indol-3-yl}methyl)-1,2,4-oxadiazolidine-3,5-dione] | – | 64%
33 | C#CCn1cc(Cn2oc(=O)[nH]c2=O)c2cc(OCc3cccc(Br)c3)ccc21 [Compound 26, 2-{[5-[(3-bromobenzyl)oxy]-1-(2-propynyl)-1H-indol-3-yl]methyl}-1,2,4-oxadiazolidine-3,5-dione] | – | 100%
34 | C=CCn1cc(Cn2oc(=O)[nH]c2=O)c2cc(OCc3cccc(Br)c3)ccc21 [Compound 27, 2-({1-allyl-5-[(3-bromobenzyl)oxy]-1H-indol-3-yl}methyl)-1,2,4-oxadiazolidine-3,5-dione] | – | 100%
35 | C#CCn1cc(Cn2oc(=O)[nH]c2=O)c2cc(OCc3cccc(Cl)c3)ccc21 [Compound 28, 2-{[5-[(3-chlorobenzyl)oxy]-1-(2-propynyl)-1H-indol-3-yl]methyl}-1,2,4-oxadiazolidine-3,5-dione] | – | 48%
36 | C=CCn1cc(Cn2oc(=O)[nH]c2=O)c2cc(OCc3cccc(C(F)(F)F)c3)ccc21 [Compound 29, 2-[(1-allyl-5-{[3-(trifluoromethyl)benzyl]oxy}-1H-indol-3-yl)methyl]-1,2,4-oxadiazolidine-3,5-dione] | – | 79%
37 | C=CCn1cc(Cn2oc(=O)[nH]c2=O)c2cc(OCc3ccccc3Cl)ccc21 [Compound 33, 2-({1-allyl-5-[(2-chlorobenzyl)oxy]-1H-indol-3-yl}methyl)-1,2,4-oxadiazolidine-3,5-dione] | – | 91%
